For one experiment, the target named is T1, BRD4(BD1) (Homo sapiens, UniProt O60885).
T1 construct: His; made in house
The experiment can be described thus: BRD4 AlphaLisa binding assay (Alphascreen). On the procedure: Specifically, in a 384 well ProxiPlate BRD4(BD1) (30 nM final) was combined with peptide (200 nM final) in 40 mM HEPES (pH 7.0), 40 mM NaCl, 1 mM DTT, 0.01% (w/v) BSA, and 0.008% (w/v) Brij-35 either in the presence of DMSO (final 1.2% DMSO) or compound dilution series in DMSO. After 20 minute incubation at room temperature Alpha streptavidin donor beads and AlphaLisa anti-Flag acceptor beads were added to a final concentration of 10 ug/mL each. After three hours equilibration plates were read on an Envision instrument and IC50s calculated using a four parameter non-linear curve fit.
(In general: Bead proximity is the source of the signal in Alpha formats.)

For a further experiment, the system named is IL-6 secretion. The experiment can be described thus: Cell-based IL-6 quantification assay (ELISA, Mesoscale) in LPS-stimulated THP-1 cells. Particulars: read-out: IL6. On the procedure: 100,000 THP-1 cells were seeded in RPMI1640-10% FBS in 96-well plates. LPS (E. Coli Invitrogen) in RPMI-10% FBS at a final concentration of 4 μg/mL was added to the wells and the cells are then incubated in the presence of various concentrations of compounds for 16 h. Plates are spun ([…], 5 min), an aliquot of 25 uL supernatant is transferred in to an ELISA plate (Mesoscale technology, MSD) and the detection of IL-6 is performed using manufacturer's instructions. The amount of cells in each well is assessed using CellTiter-Glo® (Promega). The ratio of ELISA value/CellTiter-Glo value is used to calculate the percent of inhibition of IL-6 secretion.
For orientation: An ELISA detects its analyte on a solid surface through an enzyme-linked reagent.

Setting [1] is: Table 6, BRD4(BD1) 30 nM, H4-tetraacetyl peptide 200 nM, read-out: BRD4 Alphascreen IC50.
[2] abbreviates: Homo sapiens, THP-1, 16 h, Table 7, THP-1 cells, LPS 4 μg/mL, 16 h, normalised to CellTiter-Glo.
Setting [3] is: Homo sapiens, THP-1, 16 h, Table 14, THP-1 cells, LPS, 16 h.
[4] abbreviates: Table 14, BRD4 AlphaLisa Binding Assay, read-out: Alpha screen.
Setting [5] is: Table 14, THP-1 cells, LPS, 16 h.

The values that follow come from patent US9522920B2, “Bromodomain inhibitors and uses thereof” (Constellation Pharmaceuticals, Inc., priority 2010, dated 2016).

Molecules are shown by their SMILES. Where two headings read alike, the source gives them in different places. A value given as a limit tells only on which side of the number the result lay.

In the case of `Cc1noc2c1-c1sc(C)c(C)c1C(c1cncnc1)=NC2CC(N)=O` (stereo not shown) [Compound 105], the IC50 at BRD4(BD1) (setting [1]) and with IL-6 secretion (setting [2]) was more than 1000 nM in each case. On to `Cc1noc2c1-c1sc(C)c(C)c1C(Nc1ccc(Cl)cc1)=N[C@H]2CC(N)=O` [Compound 185, 2-((6S)-4-((4-Chlorophenyl)amino)-2,3,9-trimethyl-6H-isoxazolo[5,4-c]thieno[2,3-e]azepin-6-yl)acetamide], for which the IC50 on BRD4(BD1) (setting [1]) and in the experiment with IL-6 secretion (setting [2]) was more than 1000 nM in each case. With `Cc1noc2c1-c1sc(C)c(C)c1C(N1CCN(C)CC1)=NC2CC(N)=O` (stereo not shown) [Compound 121], the IC50 on BRD4(BD1) (setting [1]) and with IL-6 secretion (setting [2]) was more than 1000 nM in each case. For the compound `Cc1noc2c1-c1cn(C)nc1C(c1ccc(Cl)cc1)=NC2` [Compound 265, 6-(4-chlorophenyl)-1,8-dimethyl-4,8-dihydroisoxazolo[5,4-c]pyrazolo[4,3-e]azepine], the IC50 with IL-6 secretion (setting [3]) is more than 1000 nM. Regarding `CC(=O)NC[C@@H]1N=C(c2ccc(Cl)cc2)c2c(sc(C)c2C)-c2c(C)noc21` [Compound 182, N-(((6S)-4-(4-Chlorophenyl)-2,3,9-trimethyl-6H-isoxazolo[5,4-c]thieno[2,3-e]azepin-6-yl)methyl)acetamide], the IC50 was less than 500 nM at BRD4(BD1) (setting [1]) and 500 to 1000 nM in the experiment on IL-6 secretion (setting [2]). For `Cc1cc(Cl)ccc1C1=NC(CC(N)=O)c2onc(C)c2-c2ccccc21` (stereo not shown) [Compound 151], in that order: less than 500 nM and less than 500 nM.

As for `CCNC(=O)C[C@H]1N=C(c2ccc(Cl)cc2)c2ccccc2-c2c1noc2C` [Compound 189, 2-((4R)-6-(4-chlorophenyl)-1-methyl-4H-benzo[c]isoxazolo[4,3-e]azepin-4-yl)-N-ethylacetamide], at BRD4(BD1) (setting [1]), the IC50 was more than 1000 nM. Consider `CCOC(=O)C[C@@H]1N=C(c2ccc(Cl)cc2)c2ccccc2-c2c1noc2C` [Compound 162, Ethyl 2-((4S)-6-(4-chlorophenyl)-1-methyl-4H-benzo[c]isoxazolo[4,3-e]azepin-4-yl)acetate], for which the IC50 on BRD4(BD1) (setting [1]) is less than 500 nM; in the experiment on IL-6 secretion (setting [2]) it was more than 1000 nM. `COc1nccc2c1C(c1ccc(Cl)cc1)=NCc1onc(C)c1-2` [Compound 170, 6-(4-Chlorophenyl)-7-methoxy-1-methyl-4H-isoxazolo[5,4-c]pyrido[4,3-e]azepine]: the IC50 at BRD4(BD1) (setting [1]) was less than 500 nM; with IL-6 secretion (setting [2]), more than 1000 nM.

As for `Cc1onc2c1-c1ccccc1C(c1ccc(Cl)cc1)=NC2O` (stereo not shown) [Compound 153, 6-(4-chlorophenyl)-1-methyl-4H-benzo[c]isoxazolo[4,3-e]azepin-4-ol], the IC50 on BRD4(BD1) (setting [1]) and with IL-6 secretion (setting [2]) was more than 1000 nM in each case. For the compound `Cc1noc2c1-c1sc(C)c(C)c1C(c1ccccc1Cl)=NC2CC(N)=O` (stereo not shown) [Compound 111], the IC50 at BRD4(BD1) (setting [1]) and in the experiment on IL-6 secretion (setting [2]) was less than 500 nM each time. As for `CCNC(=O)NC1N=C(c2ccc(C#N)cc2)c2ccccc2-c2c(C)noc21` (stereo not shown) [compound 261], the IC50 on BRD4(BD1) (setting [4]) and in the experiment on IL-6 secretion (setting [5]) was less than 500 nM each time. As to `Cc1noc2c1-c1sc(C)c(C)c1C(c1cccc(C(N)=O)c1)=NC2CC(N)=O` (stereo not shown) [Compound 117], the IC50 at BRD4(BD1) (setting [1]) and with IL-6 secretion (setting [2]) was less than 500 nM in each case.

`Cc1onc2c1-c1ccccc1C(c1ccc(Cl)cc1)=NC2N` (stereo not shown) [Compound 154, 6-(4-chlorophenyl)-1-methyl-4H-benzo[c]isoxazolo[4,3-e]azepin-4-amine]: the IC50 on BRD4(BD1) (setting [1]) and in the experiment on IL-6 secretion (setting [2]) was more than 1000 nM in each case. In the case of `CCNC(=O)C[C@H]1N=C(c2ccc(Cl)cc2)c2c(sc(C)c2C)-c2c(C)noc21` [Compound 167, 2-((6R)-4-(4-chlorophenyl)-2,3,9-trimethyl-6H-isoxazolo[4,5-e]thieno[3,2-c]azepin-6-yl)-N-ethylacetamide], the IC50 at BRD4(BD1) (BRD4 Alphascreen IC50, Table 6, BRD4(BD1) 30 nM, H4-tetraacetyl peptide 200 nM) was more than 1000 nM. With `Cc1noc2c1-c1sc(C)c(C)c1C(C1CCN(C)CC1)=N[C@H]2CC(N)=O` [Compound 194], the IC50 on BRD4(BD1) (setting [4]) and with IL-6 secretion (setting [5]) was more than 1000 nM throughout. As to `Cc1noc2c1-c1sc(C)c(C)c1C(C1CCOCC1)=N[C@H]2CC(N)=O` [Compound 168, 2-((6S)-2,3,9-trimethyl-4-(tetrahydro-2H-pyran-4-yl)-6H-isoxazolo[5,4-c]thieno[2,3-e]azepin-6-yl)acetamide], the IC50 at BRD4(BD1) (setting [1]) and with IL-6 secretion (setting [2]) was more than 1000 nM throughout.

With `Cc1noc2c1-c1sc(C)c(C)c1C(c1ccn(C)n1)=NC2CC(N)=O` (stereo not shown) [Compound 101], the IC50 on BRD4(BD1) (setting [1]) was less than 500 nM; with IL-6 secretion (setting [2]), 500 to 1000 nM. Consider `Cc1noc2c1-c1ccnc(OC(C)C)c1C(c1ccc(Cl)cc1)=NC2` [Compound 171, 6-(4-Chlorophenyl)-7-isopropoxy-1-methyl-4H-isoxazolo[5,4-c]pyrido[4,3-e]azepine], for which the IC50 was more than 1000 nM on BRD4(BD1) (setting [1]) and more than 1000 nM in the experiment with IL-6 secretion (Homo sapiens, THP-1, 16 h).

With `Cc1noc2c1-c1sc(C)c(C)c1C(c1cc[nH]n1)=NC2CC(N)=O` (stereo not shown) [Compound 100], the results for the IC50 on BRD4(BD1) (setting [1]) and in the experiment on IL-6 secretion (setting [2]) were less than 500 nM and 500 to 1000 nM, respectively. As to `Cc1onc2c1-c1ccccc1C(c1ccc(Cl)cc1)=NC2C` (stereo not shown) [Compound 156, 6-(4-chlorophenyl)-1,4-dimethyl-4H-benzo[c]isoxazolo[4,3-e]azepine], the IC50 on BRD4(BD1) (setting [1]) was less than 500 nM; with IL-6 secretion (setting [2]), more than 1000 nM. Consider `Cc1noc2c1-c1sc(C)c(C)c1C(c1ccnnc1)=NC2CC(N)=O` (stereo not shown) [Compound 104], for which the IC50 at BRD4(BD1) (setting [1]) and in the experiment with IL-6 secretion (setting [2]) was 500 to 1000 nM in each case.

As for `Cc1noc2c1-c1sc(C)c(C)c1C(OC(C)C)=N[C@H]2CC(N)=O` [Compound 193], the figures for the IC50 on BRD4(BD1) (setting [4]) and in the experiment on IL-6 secretion (setting [5]) were 500 to 1000 nM and more than 1000 nM, respectively. As for `Cc1noc2c1-c1sc(C)c(C)c1C(c1ccncc1)=NC2CC(N)=O` (stereo not shown) [Compound 107], the IC50 at BRD4(BD1) (setting [1]) and with IL-6 secretion (setting [2]) was less than 500 nM in each case.

As to `Cc1noc2c1-c1sc(C)c(C)c1C(c1cccnc1)=NC2CC(N)=O` (stereo not shown) [Compound 106], the IC50 at BRD4(BD1) (setting [1]) and in the experiment with IL-6 secretion (setting [2]) was less than 500 nM in each case. `Cc1noc2c1-c1cc[nH]c(=O)c1C(c1ccc(Cl)cc1)=NC2` [Compound 176, 6-(4-Chlorophenyl)-1-methyl-4H-isoxazolo[5,4-c]pyrido[4,3-e]azepin-7(8H)-one]: the IC50 on BRD4(BD1) (setting [1]) and in the experiment on IL-6 secretion (setting [2]) was more than 1000 nM each time. On to `Cc1noc2c1-c1ccn(-c3ccccc3)c(=O)c1C(c1ccc(Cl)cc1)=NC2` [Compound 179, 6-(4-Chlorophenyl)-1-methyl-8-phenyl-4H-isoxazolo[5,4-c]pyrido[4,3-e]azepin-7(8H)-one], for which the IC50 on BRD4(BD1) (setting [1]) and with IL-6 secretion (setting [2]) was more than 1000 nM throughout.

Consider `Cc1onc2c1-c1ccccc1C(c1ccc(Cl)cc1)=NC2` [Compound 191, 6-(4-chlorophenyl)-1-methyl-4H-benzo[c]isoxazolo[4,3-e]azepine], for which the IC50 on BRD4(BD1) (setting [1]) is more than 1000 nM.

On to `Cc1noc2c1-c1ccnc(F)c1C(c1ccc(Cl)cc1)=NC2` [Compound 169, 6-(4-Chlorophenyl)-7-fluoro-1-methyl-4H-isoxazolo[5,4-c]pyrido[4,3-e]azepine], for which the IC50 at BRD4(BD1) (setting [1]) and with IL-6 secretion (setting [2]) was more than 1000 nM in each case. On to `COC(=O)NC[C@@H]1N=C(c2ccc(Cl)cc2)c2c(sc(C)c2C)-c2c(C)noc21` [Compound 183, Methyl (((6S)-4-(4-chlorophenyl)-2,3,9-trimethyl-6H-isoxazolo[5,4-c]thieno[2,3-e]azepin-6-yl)methyl)carbamate], for which the IC50 at BRD4(BD1) (setting [1]) is less than 500 nM; in the experiment on IL-6 secretion (setting [2]), 500 to 1000 nM.

For the compound `Cc1noc2c1-c1sc(C)c(C)c1C(C1CC1)=NC2CC(N)=O` (stereo not shown) [Compound 125], the IC50 at BRD4(BD1) (setting [1]) and in the experiment on IL-6 secretion (setting [2]) was more than 1000 nM each time. For `Cc1noc2c1-c1ccn(C)c(=O)c1C(c1ccc(Cl)cc1)=NC2` [Compound 177, 6-(4-Chlorophenyl)-1,8-dimethyl-4H-isoxazolo[5,4-c]pyrido[4,3-e]azepin-7(8H)-one], the IC50 on BRD4(BD1) (setting [1]) and with IL-6 secretion (setting [2]) was more than 1000 nM in each case.

As to `Cc1noc2c1-c1sc(C)c(C)c1C(N1CCOCC1)=NC2CC(N)=O` (stereo not shown) [Compound 122], the IC50 at BRD4(BD1) (setting [1]) and with IL-6 secretion (setting [2]) was more than 1000 nM throughout. `CC(=O)NC1N=C(c2ccc(C#N)cc2)c2ccccc2-c2c(C)noc21` (stereo not shown) [Compound 263, N-(6-(4-cyanophenyl)-1-methyl-4,1-benzo[c]isoxazolo[4,5-e]azepin-4-yl)acetamide]: the IC50 at BRD4(BD1) (setting [4]) and in the experiment on IL-6 secretion (setting [3]) was less than 500 nM throughout.

`CCNC(=O)NC1N=C(c2ccc(OC(F)(F)F)cc2)c2ccccc2-c2c(C)noc21` (stereo not shown) [compound 259]: the IC50 on BRD4(BD1) (setting [4]) is less than 500 nM.

On to `CCNC(=O)NC1N=C(c2ccc(F)cc2)c2ccccc2-c2c(C)noc21` (stereo not shown) [compound 260], for which, on BRD4(BD1) (setting [4]), the IC50 is less than 500 nM. Regarding `CNc1cc2c(cn1)-c1c(C)noc1CN=C2c1ccc(Cl)cc1` [Compound 258, 6-(4-Chlorophenyl)-N,1-dimethyl-4H-isoxazolo[5,4-c]pyrido[3,4-e]azepin-8-amine], at BRD4(BD1) (setting [4]), the IC50 is less than 500 nM.
